Results taken from publication PMC10128460, “Discovery of the first-in-class potent and isoform-selective human carbonic anhydrase III inhibitors” (Journal of Enzyme Inhibition and Medicinal Chemistry, 2023).
“And” between values parts separate entries of the source, which are not always exact repeats. Identical values can stand only once. Like-named read-outs stand apart in the source and are kept apart here.

Experiments:
[1] = target: T1, hCA I (Homo sapiens, UniProt P00915); assay: Stopped-Flow CO2 hydrase assay, hCA I; type: biochemical; details: mean from 3 assays, errors ± 5–10%
T1 construct: made in house
Protocol: (§1) An Applied Photophysics stopped-flow instrument has been used for assaying the CA catalysed CO2 hydration activity[47]. […] The CO2 concentrations ranged from 1.7 to 17 mM for the determination of the kinetic parameters and inhibition constants. […] The uncatalysed rates were determined in the same manner and subtracted from the total observed rates. Stock solutions of inhibitor (0.1 mM) were prepared in distilled − deionized water and dilutions up to 0.01 nM were done thereafter with the assay buffer. Inhibitor and enzyme solutions were preincubated together for 15 min at room temperature before assay to allow for the formation of the E − I complex. The inhibition constants were obtained by nonlinear least-squares methods using PRISM 3 and the Cheng − Prusoff equation, as reported earlier[48]^,[49], and represent the mean from at least three different determinations. […] All hCA isoforms were recombinant ones obtained in-house as reported earlier[50].

[2] = target: T2, hCA II (Homo sapiens, UniProt P00918); assay: Stopped-Flow CO2 hydrase assay, hCA II; type: biochemical; details: mean from 3 assays, errors ± 5–10%
T2 construct: made in house
Protocol: as §1

[3] = target: T3, hCA III (Homo sapiens, UniProt P07451); assay: Stopped-Flow CO2 hydrase assay, hCA III; type: biochemical; details: for Selectivity Index (SI) hCA II/hCA III: ratio of KI hCA II to KI hCA III; for Ki: stopped-flow CO2 hydrase, mean from 3 assays, errors ± 5–10%; for Selectivity Index (SI) hCA I/hCA III: ratio of KI hCA I to KI hCA III
T3 construct: made in house
Protocol: as §1

[4] = target: T4, hCA IV (Homo sapiens, UniProt P22748); assay: Stopped-Flow CO2 hydrase assay, hCA IV; type: biochemical; details: mean from 3 assays, errors ± 5–10%
T4 construct: made in house
Protocol: as §1

[5] = target: T5, hCA VA (Homo sapiens, UniProt P35218); assay: Stopped-Flow CO2 hydrase assay, hCA VA; type: biochemical
T5 construct: made in house
Protocol: as §1

[6] = target: T6, hCA VB (Homo sapiens, UniProt Q9Y2D0); assay: Stopped-Flow CO2 hydrase assay, hCA VB; type: biochemical; details: mean from 3 assays, errors ± 5–10%
T6 construct: made in house
Protocol: as §1

[7] = target: T7, hCA VII (Homo sapiens, UniProt P43166); assay: Stopped-Flow CO2 hydrase assay, hCA VII; type: biochemical; details: mean from 3 assays, errors ± 5–10%
T7 construct: made in house
Protocol: as §1

[8] = target: T8, hCA XII (Homo sapiens, UniProt O43570); assay: Stopped-Flow CO2 hydrase assay, hCA XII; type: biochemical; details: mean from 3 assays, errors ± 5–10%
T8 construct: made in house
Protocol: as §1

[9] = stopped-flow CO2 hydrase, mean from 3 assays, errors ± 5–10%, read-out: KI hCA VA

T4 sequence (P22748 19-312): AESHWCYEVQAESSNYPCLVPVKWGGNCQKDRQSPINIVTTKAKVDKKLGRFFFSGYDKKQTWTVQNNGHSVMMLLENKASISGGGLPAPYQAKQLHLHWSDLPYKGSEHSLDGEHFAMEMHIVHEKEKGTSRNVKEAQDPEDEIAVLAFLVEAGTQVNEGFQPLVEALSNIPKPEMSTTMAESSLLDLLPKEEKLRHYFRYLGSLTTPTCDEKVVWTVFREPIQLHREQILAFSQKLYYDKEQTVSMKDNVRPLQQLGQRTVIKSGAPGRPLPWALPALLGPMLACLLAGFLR
T3 sequence (P07451 whole entry): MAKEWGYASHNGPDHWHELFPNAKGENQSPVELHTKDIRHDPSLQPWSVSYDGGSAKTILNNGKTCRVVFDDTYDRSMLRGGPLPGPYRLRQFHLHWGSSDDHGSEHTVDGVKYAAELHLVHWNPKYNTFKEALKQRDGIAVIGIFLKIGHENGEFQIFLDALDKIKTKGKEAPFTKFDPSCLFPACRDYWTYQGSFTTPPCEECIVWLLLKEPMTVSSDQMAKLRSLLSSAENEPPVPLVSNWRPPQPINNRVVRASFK
T6 sequence (Q9Y2D0 34-317): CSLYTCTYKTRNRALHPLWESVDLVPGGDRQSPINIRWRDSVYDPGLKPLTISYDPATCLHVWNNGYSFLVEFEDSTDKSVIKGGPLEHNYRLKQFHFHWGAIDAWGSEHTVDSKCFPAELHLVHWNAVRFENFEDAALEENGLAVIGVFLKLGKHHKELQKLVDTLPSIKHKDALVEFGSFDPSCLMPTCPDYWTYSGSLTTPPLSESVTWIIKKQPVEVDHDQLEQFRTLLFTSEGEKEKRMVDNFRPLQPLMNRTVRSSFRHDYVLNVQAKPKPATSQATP
T7 sequence (P43166 whole entry): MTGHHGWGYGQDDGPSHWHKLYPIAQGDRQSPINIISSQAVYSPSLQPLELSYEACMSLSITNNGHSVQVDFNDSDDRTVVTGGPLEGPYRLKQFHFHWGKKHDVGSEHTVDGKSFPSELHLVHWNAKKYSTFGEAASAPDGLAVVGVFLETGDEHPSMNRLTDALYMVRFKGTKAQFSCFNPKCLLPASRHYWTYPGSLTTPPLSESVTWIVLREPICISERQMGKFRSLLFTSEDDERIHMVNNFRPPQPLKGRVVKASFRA
T1 sequence (P00915 whole entry): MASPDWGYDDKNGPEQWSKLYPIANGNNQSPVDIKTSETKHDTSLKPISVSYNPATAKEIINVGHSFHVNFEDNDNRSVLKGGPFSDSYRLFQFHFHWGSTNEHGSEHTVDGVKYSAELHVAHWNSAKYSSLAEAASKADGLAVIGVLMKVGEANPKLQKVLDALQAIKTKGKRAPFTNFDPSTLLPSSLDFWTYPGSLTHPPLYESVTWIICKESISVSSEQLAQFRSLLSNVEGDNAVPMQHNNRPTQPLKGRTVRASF
T5 sequence (P35218 39-305): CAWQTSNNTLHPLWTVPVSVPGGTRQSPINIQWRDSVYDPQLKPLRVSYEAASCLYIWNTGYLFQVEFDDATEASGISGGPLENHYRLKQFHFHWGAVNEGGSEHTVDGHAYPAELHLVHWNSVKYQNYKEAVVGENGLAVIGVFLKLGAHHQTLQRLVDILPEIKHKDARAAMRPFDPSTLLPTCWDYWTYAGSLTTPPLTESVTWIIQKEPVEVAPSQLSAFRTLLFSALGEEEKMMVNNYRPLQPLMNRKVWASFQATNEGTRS
T8 sequence (O43570 25-354): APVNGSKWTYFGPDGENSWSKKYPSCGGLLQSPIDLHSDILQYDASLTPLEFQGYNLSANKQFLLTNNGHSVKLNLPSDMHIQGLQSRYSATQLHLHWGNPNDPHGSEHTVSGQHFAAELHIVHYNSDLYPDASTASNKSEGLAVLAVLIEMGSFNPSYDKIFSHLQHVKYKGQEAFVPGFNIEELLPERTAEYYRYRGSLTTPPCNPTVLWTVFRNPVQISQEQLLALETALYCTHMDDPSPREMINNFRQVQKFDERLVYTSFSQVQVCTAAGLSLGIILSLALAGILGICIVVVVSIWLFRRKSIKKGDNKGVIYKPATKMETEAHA

Compound | Ki [1] [nM] | Ki [2] [nM] | Selectivity Index (SI) hCA II/hCA III [3] | Ki [3] [nM] | Ki [4] [nM] | Ki [5, 9] [nM] | Ki [6] [nM] | Ki [7] [nM] | Ki [8] [nM] | melting point [°C] | Selectivity Index (SI) hCA I/hCA III [3] | Ki [5] [nM]
NS(=O)(=O)CCCn1cc(CNC(=O)Nc2ccc(C(F)(F)F)cc2)nn1 [Compound 33, 3–(4-((3–(4-(Trifluoromethyl)phenyl)ureido)methyl)-1H-1,2,3-triazol-1-yl)propane-1-sulfonamide] | > 10000 | 4160 | 4.2 | 989 | 875 | 7040 | 2090 | 5410 | 2630 | > 300 |  | 
COc1cccc(OCc2cn(CCCS(N)(=O)=O)nn2)c1 [Compound 30, 3–(4-((3-Methoxyphenoxy)methyl)-1H-1,2,3-triazol-1-yl)propane-1-sulfonamide] | 1910 | 4100 | 11.89 and 11.9 | 345 | > 10000 | 2880 | 1440 | 4680 | 1100 | 270 to 272 | 5.5 | 
COc1ccc(OCc2cn(CCCS(N)(=O)=O)nn2)cc1 [Compound 29, 3–(4-((4-Methoxyphenoxy)methyl)-1H-1,2,3-triazol-1-yl)propane-1-sulfonamide] | 1160 | 2450 | 4.4 | 554 | 5440 | 4810 | 3030 | 2710 | 1950 | 273 to 274 | 2.1 | 
3–(4-Phenyl-1H-1,2,3-triazol-1-yl)propane-1-sulfonamide [Compound 38] | 607 | 713 | 1.4 | 502 | 959 | 1650 | 1040 | 860 | 1060 |  | 1.21 and 1.2 | 
4–(4-(3-Fluorophenyl)-1H-1,2,3-triazol-1-yl)butane-1-sulfonamide [Compound 52] | 778 | 8130 | 26.2 | 310 | > 10000 | 1270 | 2990 | 3230 | 7810 |  | 2.5 | 
NS(=O)(=O)CCCCn1cc(COc2ccccc2)nn1 [Compound 40, 4–(4-(Phenoxymethyl)-1H-1,2,3-triazol-1-yl)butane-1-sulfonamide] | 6540 | 7770 | 9.5 | 818 | 3610 | 7780 | 1530 | 7610 | 5180 | 221 to 223 | 8.0 | 
3–(4-(3-Fluorophenyl)-1H-1,2,3-triazol-1-yl)propane-1-sulfonamide [Compound 39] | 862 | 3140 | 19.34 and 19.3 | 163 | 2610 | 1570 | 1310 | 6500 | 1240 |  | 5.3 | 
NS(=O)(=O)CCCCn1cc(COc2ccc(F)cc2)nn1 [Compound 41, 4–(4-((4-Fluorophenoxy)methyl)-1H-1,2,3-triazol-1-yl)butane-1-sulfonamide] | 6430 | 8130 | 13.14 and 13.1 | 618 | 5510 | 4390 | 1240 | 5330 | 2100 | 246 to 248 | 10.4 | 
NS(=O)(=O)CCCCn1cc(CNC(=O)Nc2ccc(F)cc2)nn1 [Compound 44, 4–(4-((3–(4-Fluorophenyl)ureido)methyl)-1H-1,2,3-triazol-1-yl)butane-1-sulfonamide] | 5380 | 7580 | 12.66 and 12.7 | 599 | 2920 |  | 2550 | 3350 | 3710 | 284 to 286 | 9.0 | 1350
Ethyl 1–(4-sulfamoylbutyl)-1H-1,2,3-triazole-4-carboxylate [Compound 50] | 916 | 772 | 1.0 | 775 | 3980 | 912 | 814 | 809 | 1020 |  | 1.18 and 1.2 | 

Continued, in another order:

Ki [1] [nM] | Ki [2] [nM] | Selectivity Index (SI) hCA II/hCA III [3] | Ki [3] [nM] | Ki [4] [nM] | Ki [5, 9] [nM] | Ki [6] [nM] | Ki [7] [nM] | Ki [8] [nM] | melting point [°C] | Selectivity Index (SI) hCA I/hCA III [3] | Compound | Ki [5] [nM]
> 10000 | 937 | 1.19 and 1.2 | 786 | > 10000 | 2040 | 4000 | 4480 | 1980 | 214 to 215 |  | COc1cccc(NC(=O)NCc2cn(CCCS(N)(=O)=O)nn2)c1 [Compound 35, 3–(4-((3–(3-Methoxyphenyl)ureido)methyl)-1H-1,2,3-triazol-1-yl)propane-1-sulfonamide] | 
> 10000 |  |  |  |  | 8770 |  | 5150 | 5820 | 282 to 285 |  | COc1ccc(NC(=O)NCc2cn(CCCCS(N)(=O)=O)nn2)c(C)c1 [Compound 49, 4–(4-((3–(4-Methoxy-2-methylphenyl)ureido)methyl)-1H-1,2,3-triazol-1-yl)butane-1-sulfonamide] | 
4890 | 2030 | 2.8 | 728 | > 10000 | 1030 | 2470 | 4370 | 2480 | 261 to 263 | 6.7 | NS(=O)(=O)CCCn1cc(COc2ccc(F)cc2)nn1 [Compound 28, 3–(4-((4-Fluorophenoxy)methyl)-1H-1,2,3-triazol-1-yl)propane-1-sulfonamide] | 
8540 | 3930 | 5.8 | 676 | 5610 | 6040 | 6670 | 5300 | 3070 | 251 to 253 |  | COc1ccc(OCc2cn(CCCCS(N)(=O)=O)nn2)cc1 [Compound 42, 4–(4-((4-Methoxyphenoxy)methyl)-1H-1,2,3-triazol-1-yl)butane-1-sulfonamide] | 
5520 | 4610 | 9.7 | 476 | > 10000 | 4160 | 1140 | 3900 | 4660 | 217 to 218 | 11.6 | COc1cccc(NC(=O)NCc2cn(CCCCS(N)(=O)=O)nn2)c1 [Compound 48, 4–(4-((3–(3-Methoxyphenyl)ureido)methyl)-1H-1,2,3-triazol-1-yl)butane-1-sulfonamide] | 
